Measured values from US20190134148A1, “COMBINATION THERAPY” (BIG DNA LTD, priority 2016, published 2019).
Like-named read-outs stand apart in the source and are kept apart here.

Legend:
[1] = tested on: T47D breast cancer cell line; test: Sulforhodamine B viability assay and isobologram / combination index in T47D cells; format: cell-based; conditions: for CI: single agent
Protocol: For assessment of combined BTZ and cilengitide toxicity, T47D cells were seeded at a density of 7500 cells/cm^2 in 96-well cell culture plates and incubated for 24 hours. Cilengitide was diluted to 20 μM in complete DMEM, then 3 serial tenfold dilutions of this were performed in complete DMEM (2 μM, 200 nM and 20 nM). Complete DMEM containing no cilengitide was provided for negative controls.
These dilutions (or DMSO for wells containing no BTZ) were added to aliquots of complete DMEM containing 0-20 μM cilengitide for a 1/150 dilution. Aliquots (0.1 mL) of each mixture were added to wells already containing 0.1 mL medium (in duplicate), resulting in a matrix of cilengitide (10 nM-10 μM) and/or BTZ (1 nM-10 μM) or neither agent (diluent only).
OD570nm readings were divided by those resulting from negative control (diluent only) wells and expressed as a percentage. Three independent replicates of this experiment were carried out.
The isoboles were obtained similarly by extrapolation of points representing 50% reduction in viability from line graphs of % viability versus concentration of one agent at variable concentration with the other agent supplied at a fixed concentration.
The position of the points on this graph (FIG. 6) indicates whether a combined effect is synergistic (falling below/left of the line) antagonistic (falling above/right of this line) or additive (on or close to this line).
CA,x and CB,x are the concentrations of drug A and drug B used in combination to achieve x % drug effect. ICx,A and ICx,B are the concentrations for single agents to achieve the same effect.

[2] = tested on: NCI H-929 human multiple myeloma cells; test: NCI-H929 sub-cutaneous xenograft mouse tumor model, 'high' bortezomib dose (Example 7); format: in vivo, SCID mouse; conditions: for Complete response / No response / Partial response: mice of N = 10; for Complete response / No response / Partial response / Total RR %: bortezomib 1 mg/kg IV biweekly, cilengitide 45 mg/kg IP QD; for Total RR %: sum of PR+CR
Description: This was then continued until Day 21.
Partial response (PR) is defined as the first measurement of the tumor volume being 50% or less of its Day 1 volume for three consecutive measurements during the course of the study, and equal to or greater than 13.5 mm^3 for one or more of these three measurements. In a complete response (CR), the tumor volume was less than 13.5 mm^3 for three consecutive measurements during the course of the study. Total response rate (RR) is the sum of PR+CR. Treatment began on day 1 and was stopped on Day 21.

[3] = tested on: NCI H-929 multiple myeloma cell line; test: NCI H-929 sub cutaneous tumour study with varied BTZ dose, TGI and TTE (Example 8); format: in vivo, mice; conditions: day 18
Protocol: Cilengitide or vehicle was supplied as daily intra-peritoneal injection (45 mg/kg). […] After this point, dosing was continued in groups receiving 0.2 mg/kg and 0.5 mg/kg BTZ t cilengitide until day 31 to allow comparative tumour growth delay (i.e. difference in time to endpoint (TTE). […] TTE was calculated as TTE=[log(endpoint volume)-b]/m where TTE is expressed in days, endpoint volume is expressed in mm^3, b is the intercept, and m is the slope of the line obtained by linear regression of a log-transformed tumour growth data set. TTE values were plotted in Kaplan-Meier diagrams (FIGS. 9 and 10).

[4] = CD-1 mice; 4 mg/kg PO versus 0.8 mg/kg intravenously; cited from earlier work
[5] = Sprague-Dawley rats; AUC intravenous versus intra-gastric administration; cited from earlier work
20S proteasome = 20S proteasome (Homo sapiens, UniProt P20618+P28074); conditions: cited from earlier work
[6] = tested on: CWR22 human prostate cancer xenografts; conditions: cited from earlier work
[7] = tested on: WSU-DLCL2 lymphoma xenograft; conditions: at MTD; cited from earlier work
HEK293 cells = test: Sulforhodamine B relative cell growth assay in HEK293 cells; format: cell-based; conditions: HEK293 (αvβ3+ve); 10 μM proteasome inhibitor without cRGDfK
Protocol: Established methodology was used to prepare 80-100% confluent monolayers of HEK293 cells in T75 flasks. Cells were cultured in DMEM (Lonza) supplemented with 10% FBS (Gibco), 2 mM L-glutamine, 100 U/mL penicillin and 100 μg/mL streptomycin (“complete DMEM”).
The cells in T75 flasks were trypsinised and resuspended in complete DMEM. The cells were counted using a Neubauer chamber and seeded at approximate density of 3×10^4 cells/cm^2 and 7500 cells/cm^2 in 96 well flat bottomed tissue culture plates (Corning) 0.1 mL cell suspension per well. Cells were incubated for 24 hours at 37° C./5% CO2 (humidified). […]
Briefly: medium was removed from wells and replaced with an equal volume of PBS. […] Optical density (OD570nm) was determined using an ELISA plate reader (Dynex MRX, Dynex Technologies).
In total, 5 replicates of the experiment were carried out. Cells treated with peptide/BTZ mixtures or control mixtures were incubated for 24 hours at 37° C./5% CO2 (humidified) then analysed by sulforhodamine B assay.
The average of the background measurements (i.e. no cells, medium only) was subtracted from each reading. ‘Ti’ is OD570nm following 24 hours treatment with drugs. […]
Using these equations, control cell growth is assigned a relative cell growth value of 100% and all cell growth values are calculated relative to this figure. […]

Cos7 cells = test: Sulforhodamine B relative cell growth assay in Cos7 cells; format: cell-based; conditions: COS-7 (αvβ3−ve); 10 μM proteasome inhibitor without cRGDfK
[8] = tested on: chymotrypsin-like activity of the proteasome; conditions: highest dose used in the phase I trial; cited from earlier work
[9] = phase II trials; heavily pretreated patient population; cited from earlier work
[10] = Cilengitide oral bioavailability, plasma level by LC-MS after intra-gastric gavage; format: in vivo; conditions: mice, 100 mg/kg intra-gastric gavage
Protocol: 3 mice were dosed with cilengitide at 100 mg/kg by intra-gastric gavage. Bleeds (0.1 mL) were taken before dosing and 5 and 15 minutes post dosing. Terminal bleeds (orbital vein) were taken at 60 minutes post-dose. All bleeds were transferred into Li-heparin tubes and plasma prepared by centrifugation. Aliquots of plasma (pooled per timepoint) were processed for analysis by addition of 3 volumes of acetonitrile, centrifuged for 1 minute at 13,000 rpm, then the supernatant recovered.
Samples were analysed by LC-MS alongside standards containing known amounts of cilengitide (1 ng/mL-1000 ng/mL). Cilengitide was undetectable in pre-dose, 5 minute and 15 minute time points. At the 60 minute time point: cilengitide levels were estimated to be 94.2 ng/mL.

PHTX22L xenografts = conditions: MTD level treatment; cited from earlier work
DP54-Luc model = conditions: in vivo; cited from earlier work
chymotrypsin-like sites = chymotrypsin-like sites (Homo sapiens, UniProt P28074); conditions: cited from earlier work
[11] = By Day 42, treatment stopped on Day 21, N = 10
[12] = at maximum tolerated dose (MTD)

chymotrypsin-like sites, sequence (P28074 60-263): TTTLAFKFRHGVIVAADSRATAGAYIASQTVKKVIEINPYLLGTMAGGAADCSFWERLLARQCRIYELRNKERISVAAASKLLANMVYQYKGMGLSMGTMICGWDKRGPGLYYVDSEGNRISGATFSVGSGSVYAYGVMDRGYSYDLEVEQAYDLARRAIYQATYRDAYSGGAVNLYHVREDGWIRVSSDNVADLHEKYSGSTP

CC(C)C[C@H](NC(=O)[C@H](Cc1ccccc1)NC(=O)c1cnccn1)B(O)O [Bortezomib]
CI [1]: 1.00
mice showing a complete response ([2]; By Day 8, bortezomib 1 mg/kg): 10%
animals remained 'cured' (tumours did not regrow) ([2]; By Day 42, treatment stopped on Day 21): 60%
animals that reached end point (tumour volume>2000 mm^3) [2, 11]: 1
animals that relapsed [2, 11]: 3 animals
Complete response ([2]; Day 1): 0
No response ([2]; Day 1): 10
Partial response ([2]; Day 1): 0
Total RR % ([2]; Day 1, N = 10): 0%
Complete response ([2]; Day 4): 0
No response ([2]; Day 4): 7
Partial response ([2]; Day 4): 3
Total RR % ([2]; Day 4, N = 10): 30%
Total RR % ([2]; Day 4, N = 10, listed as bortezomib): 30%
Complete response ([2]; Day 8): 1
No response ([2]; Day 8): 3
Partial response ([2]; Day 8): 6
Total RR % ([2]; Day 8, N = 10): 70%
Complete response ([2]; Day 12): 4
No response ([2]; Day 12): 2
Partial response ([2]; Day 12): 4
Complete response ([2]; Day 15): 4
No response ([2]; Day 15): 2
Partial response ([2]; Day 15): 4
Complete response ([2]; Day 18): 4
No response ([2]; Day 18): 1
Partial response ([2]; Day 18): 5
Total RR % ([2]; Day 18, N = 10): 90%
Complete response ([2]; Day 21): 5
No response ([2]; Day 21): 1
Partial response ([2]; Day 21): 4
Total RR % ([2]; Day 21, N = 10): 90%
Total RR % ([2]; Day 21, N = 10, listed as bortezomib): 90%
mice that failed to respond at all ([2]; last treatment day (Day 21), bortezomib 1 mg/kg): 10%
Tumour growth inhibition (TGI) ([3]; 0.5 mg/kg BTZ and below, without cilengitide): virtually ineffective
Tumour growth inhibition (TGI) ([3]; BTZ doses of 0.7 mg/kg and greater, biweekly intravenous): almost complete TGI
estimated oral bioavailability [4]: approximately 11%
calculated bioavailability [5]: 46%
proteasome dissociation half-life (20S proteasome): approximately 110 minutes
anti-tumoral activity [6, 12]: effective anti-tumoral activity
anti-tumoral activity [7]: ineffective

CC(C)C[C@H](NC(=O)[C@H](CCc1ccccc1)NC(=O)CN1CCOCC1)C(=O)N[C@@H](Cc1ccccc1)C(=O)N[C@@H](CC(C)C)C(=O)[C@@]1(C)CO1 [Carfilzomib]
Growth relative to untreated control cells (HEK293 cells): greater activity than ixazomib, delanzomib and oprozomib
Growth relative to untreated control cells (Cos7 cells): greater activity than ixazomib, delanzomib and oprozomib
inhibition of the chymotrypsin-like activity of the proteasome in blood of patients [8]: 88%
partial response rate [9]: 24%

CC(C)[C@H]1C(=O)N[C@@H](CCCN=C(N)N)C(=O)NCC(=O)N[C@@H](CC(=O)O)C(=O)N[C@H](Cc2ccccc2)C(=O)N1C [Cilengitide]
IC50 ([1]; read-out: Cilengitide (M), concentration resulting in 50% reduction in viability as single agent (IC50), bortezomib 0): 6.2e-06 M
CI [1]: 1.00
Complete response ([2]; Day 1): 0
No response ([2]; Day 1): 10
Partial response ([2]; Day 1): 0
Total RR % ([2]; Day 1, N = 10): 0%
Complete response ([2]; Day 4): 0
No response ([2]; Day 4): 10
Partial response ([2]; Day 4): 0
Total RR % ([2]; Day 4, N = 10): 0%
Complete response ([2]; Day 8): 0
No response ([2]; Day 8): 10
Partial response ([2]; Day 8): 0
Total RR % ([2]; Day 8, N = 10): 0%
Complete response ([2]; Day 12): 0
No response ([2]; Day 12): 10
Partial response ([2]; Day 12): 0
Total RR % ([2]; Day 12, N = 10): 0%
Complete response ([2]; Day 15): 0
No response ([2]; Day 15): 10
Partial response ([2]; Day 15): 0
Total RR % ([2]; Day 15, N = 10): 0%
Complete response ([2]; Day 18): 0
No response ([2]; Day 18): 10
Partial response ([2]; Day 18): 0
Total RR % ([2]; Day 18, N = 10): 0%
Complete response ([2]; Day 21): 0
No response ([2]; Day 21): 10
Partial response ([2]; Day 21): 0
Total RR % ([2]; Day 21, N = 10): 0%
cilengitide levels in plasma ([10]; 5 minute time point): undetectable
cilengitide levels in plasma ([10]; 15 minute time point): undetectable
level at 1 h ([10]; mouse, plasma, po, 60 minute time point, read-out: cilengitide levels in plasma): 94.2 ng/mL

CC(C)C[C@H](NC(=O)CNC(=O)c1cc(Cl)ccc1Cl)B(O)O [Ixazomib, [(1R)-1-[[2-[(2,5-dichlorobenzoyl)amino]acetyl]amino]-3-methyl-butyl]boronic acid]
proteasome dissociation half-life (20S proteasome): approximately 18 minutes
release from proteasome, fold faster than bortezomib (20S proteasome): approximately 6 fold
anti-tumoral activity ([6]; at half the MTD): more effective than bortezomib
anti-tumoral activity [6, 12]: effective anti-tumoral activity
anti-tumoral activity [7]: significant anti-tumoral activity
anti-tumoral effect (PHTX22L xenografts): only ixazomib was found to exhibit an anti-tumoral effect
alleviation of osteolytic bone disease (DP54-Luc model): effective

C[C@@]12OC(=O)[C@]1([C@@H](O)[C@@H]1C=CCCC1)NC(=O)[C@@H]2CCCl [Marizomib]
inhibition of the chymotrypsin-like sites (chymotrypsin-like sites): up to 100%
